This assay has as its target SMYD3 (Homo sapiens (Human), UniProt Q9H7B4). The experiment in a line: SMYD3 biochemical assay (SPA, 3H-SAM methylation of MEKK2 protein substrate). Particulars: read-out: SMYD3 Biochem IC50 (μM)*. The procedure, abridged:
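Enzyme: untagged full-length human SMYD3 from E. coli; substrate GST-tagged MEKK2 from insect cells. Buffer 25 mM Tris-Cl pH 8.0, 1 mM TCEP, 0.005% BSG/Tween 20. 30 min compound–enzyme preincubation at RT; 3H-SAM/MEKK2 start; stop with cold SAM (100 uM final); SPA readout in cpm.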

Consider twelve molecules from patent US10577363B2, “Substituted piperidine compounds” (EPIZYME, INC., priority 2014, dated 2020).

Usually IC50 stands for the concentration that gives 50% inhibition. In the case of `CC(C)CN(C)c1ccc(S(=O)(=O)N2CC[C@@H](NC(=O)c3cc(C4CC4)on3)C[C@@H]2C)cn1` [compound 411, 5-cyclopropyl-N-((2S,4R)-1-((6-(isobutyl(methyl)amino)pyridin-3-yl)sulfonyl)-2-methylpiperidin-4-yl)isoxazole-3-carboxamide], the IC50 is more than 10 µM.

For the molecule `O=C(NC1CC2CCC(C1)N2S(=O)(=O)CC1CCNCC1)c1cc(C2CC2)on1` (stereo not drawn) [compound 416, 5-cyclopropyl-N-(8-((piperidin-4-ylmethyl)sulfonyl)-8-azabicyclo[3.2.1]octan-3-yl)isoxazole-3-carboxamide], the IC50 worked out at 0.164 µM. Then `N[C@H]1CC[C@H](C(=O)N2CC[C@H](NC(=O)c3cc(C4CC4)on3)[C@@H](CO)C2)CC1` [compound 421, N-((3S,4S)-1-((1r,4S)-4-aminocyclohexane-1-carbonyl)-3-(hydroxymethyl)piperidin-4-yl)-5-cyclopropylisoxazole-3-carboxamide], with 2.51 µM; and `N[C@H]1CC[C@H](C(=O)N2CC[C@H](NC(=O)c3cc(C4CC4)on3)[C@H](CO)C2)CC1` [compound 422, N-((3R,4S)-1-((1r,4R)-4-aminocyclohexane-1-carbonyl)-3-(hydroxymethyl)piperidin-4-yl)-5-cyclopropylisoxazole-3-carboxamide], with 1.94 µM; and `C[C@@H]1C[C@@H](NC(=O)c2cc(C3CC3)on2)CCN1C(=O)c1ccc2[nH]cnc2c1` [compound 425, N-((2R,4S)-1-(1H-benzo[d]imidazole-5-carbonyl)-2-methylpiperidin-4-yl)-5-cyclopropylisoxazole-3-carboxamide], with more than 10 µM. Then `C[C@H]1C[C@H](NC(=O)c2cc(C3CC3)on2)CCN1C(=O)c1ccc2[nH]cnc2c1` [compound 426, N-((2S,4R)-1-(1H-benzo[d]imidazole-5-carbonyl)-2-methylpiperidin-4-yl)-5-cyclopropylisoxazole-3-carboxamide], with more than 10 µM; and `N[C@H]1CC[C@@H](C(=O)N2[C@@H]3CC[C@H]2C[C@@H](NC(=O)c2cc(C4CC4)on2)C3)CC1` [compound 429, N-((1R,3R,5S)-8-((1s,4S)-4-aminocyclohexane-1-carbonyl)-8-azabicyclo[3.2.1]octan-3-yl)-5-cyclopropylisoxazole-3-carboxamide], with 0.351 µM. Then `NCCCS(=O)(=O)N1CCC(NC(=O)c2cc(C3CC3)on2)CC12CCC2` (stereo not drawn) [compound 445, N-(5-((3-aminopropyl)sulfonyl)-5-azaspiro[3.5]nonan-8-yl)-5-cyclopropylisoxazole-3-carboxamide], with 0.13 µM; and `CNc1ccc(S(=O)(=O)N2CC[C@H](NC(=O)c3cc(C4CC4)on3)C[C@H]2C)cn1` [compound 447, 5-cyclopropyl-N-((2R,4S)-2-methyl-1-((6-(methylamino)pyridin-3-yl)sulfonyl)piperidin-4-yl)isoxazole-3-carboxamide], with more than 10 µM; and `CNc1ccc(S(=O)(=O)N2CC[C@@H](NC(=O)c3cc(C4CC4)on3)C[C@@H]2C)cn1` [compound 448, 5-cyclopropyl-N-((2S,4R)-2-methyl-1-((6-(methylamino)pyridin-3-yl)sulfonyl)piperidin-4-yl)isoxazole-3-carboxamide], with more than 10 µM. Turning to `CC(C)CNc1ccc(S(=O)(=O)N2CC[C@H](NC(=O)c3cc(C4CC4)on3)C[C@H]2C)cn1` [compound 451, 5-cyclopropyl-N-((2R,4S)-1-((6-(isobutylamino)pyridin-3-yl)sulfonyl)-2-methylpiperidin-4-yl)isoxazole-3-carboxamide], the half-inhibitory concentration (IC50) is more than 10 µM. Then `CC(C)CNc1ccc(S(=O)(=O)N2CC[C@@H](NC(=O)c3cc(C4CC4)on3)C[C@@H]2C)cn1` [compound 452, 5-cyclopropyl-N-((2S,4R)-1-((6-(isobutylamino)pyridin-3-yl)sulfonyl)-2-methylpiperidin-4-yl)isoxazole-3-carboxamide], with more than 10 µM.
